Source: patent US11034725B2, “Compositions and methods for treating cardiovascular disease” (Genentech, Inc., priority 2016, dated 2021)
Like-named read-outs stand apart in the source and are kept apart here. Bridge positions count the residues as written; N and C are the ends. Square brackets hold non-standard residues; d marks the D form. Peptide text beside a SMILES is read from it. * marks the point of attachment. hArg = N=C(N)NCCCC[C@H](N)C(=O)O; Pentanoyl = CCCCC(=O)*; Ahp = NCCCCCCC(=O)O; Butyryl = CCCC(=O)*; Ahx = NCCCCCC(=O)O; Ava = NCCCCC(=O)O

Key:
His-EGF(A)-Fc = His-EGF(A)-Fc TR-FRET counterscreen
PCSK9Δhelix = biological target: T1, PCSK9Δhelix (Homo sapiens, UniProt Q8NBP7); test: PCSK9Δhelix/Ab20 TR-FRET binding assay; conditions: for IC50: TR-FRET, read-out: PCSK9Δhelix/Ab20 IC50
T1 construct: Human PCSK9 construct M1-Q692 with an engineered TEV site (residue deletion Y166, R167); made in house; host or cells: CHO

PCSK9 = PCSK9 (Homo sapiens, UniProt Q8NBP7); test: PCSK9/EGF(A) TR-FRET binding assay; conditions: TR-FRET, read-out: PCSK9/EGF(A) IC50
Protocol: The former was based on a TF-FRET assay to measure the association of the EGF(A) domain of the LDLR to PCSK9 (“PCSK9/EGF(A) binding assay”) whilst the latter was based on a TR-FRET assay to measure binding of Ab20 to PCSK9Δhelix (“PCSK9Δhelix/Ab20 binding assay”).
The ability of compounds to inhibit binding to PCSK9 was evaluated with a panel of time-resolved fluorescence resonance energy transfer (TR-FRET) binding assays. […] The PCSK9Δhelix/Ab20 binding assay evaluated the ability of compounds to compete with Ab20 for binding to the N-terminal groove region in a His-tagged, PCSK9Δhelix construct. […] Signal generation in the PCSK9 binding assays was dependent upon the binding interaction to bring into close proximity the His-tag on the PCSK9 and the Fc-tag on the ligand. Anti-His-APC was bound to the His-tag, and anti-Fc-europium was bound to the Fc-tag. When these two antibodies were in close proximity and were irradiated with light at 340 nm, the europium was excited and emitted energy at 615 nm. This energy was taken up by the APC and was emitted as light at 665 nm. Compounds that competed with the ligand reduced the energy transfer and thus the emission at 665 nm. In the His-EGFA-Fc molecule in the counterscreen, the two tags were always in close proximity, thus any reduction in emission at 665 nm was due to interference with the detection system.
Compounds were solubilized and dilutions were prepared in DMSO. […] The plate was centrifuged to mix the well contents and allowed to incubate for 30 min. […] The TR-FRET signal was read on a ViewLux reader (PerkinElmer) with excitation at 340 nm and emission at 615 and 665 nm with a 50-μs time delay between excitation and measurement of emission. The TR-FRET ratio was calculated as the fluorescence emission at 665 nm divided by the fluorescence emission at 615 nm. The normalized TR-FRET ratios were plotted as a function of the compound concentrations, and the IC50 values were determined using a 4-parameter logistic regression.
In black 1536-well assay plates (MaKO, Aurora® Microplates, Whitefish, Mont.), 40 nL of peptide in DMSO were preincubated with 2 μL His-tagged PCSK9 plus anti-His-allophycocyanin in assay buffer (50 mM Tris-HCl, pH 7.5, 150 mM NaCl, 2 mM CaCl2, 0.01% Tween®-20, 0.1% bovine gamma globulins, and protease inhibitor cocktail) for 30 min. Then 2 μL of Fc-tagged ligand and anti-Fc-europium in assay buffer were added and allowed to incubate for 2 h.

[1] = TR-FRET counterscreen, Table 8D, * = some inhibition at highest concentrations, not sufficient to fit an IC50
[2] = Table 8D, disulfide-cyclized extension peptides
[3] = TR-FRET counterscreen, Table 8E, additional compounds

T1 sequence (Q8NBP7 with tags, fused parts or gaps limits assumed): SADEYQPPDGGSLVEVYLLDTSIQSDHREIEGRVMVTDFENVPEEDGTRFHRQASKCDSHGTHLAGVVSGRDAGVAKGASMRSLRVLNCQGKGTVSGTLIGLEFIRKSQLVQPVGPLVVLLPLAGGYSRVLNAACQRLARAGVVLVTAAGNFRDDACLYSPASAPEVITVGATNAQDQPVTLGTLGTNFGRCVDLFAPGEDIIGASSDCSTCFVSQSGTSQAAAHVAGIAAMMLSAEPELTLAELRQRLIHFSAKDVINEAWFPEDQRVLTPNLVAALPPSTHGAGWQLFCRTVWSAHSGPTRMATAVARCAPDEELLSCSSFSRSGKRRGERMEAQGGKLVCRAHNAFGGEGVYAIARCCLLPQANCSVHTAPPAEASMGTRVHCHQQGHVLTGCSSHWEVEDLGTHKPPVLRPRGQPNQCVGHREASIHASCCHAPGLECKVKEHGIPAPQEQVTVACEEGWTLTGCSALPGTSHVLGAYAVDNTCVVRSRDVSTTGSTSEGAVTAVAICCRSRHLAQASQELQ
T1 sequence (Q8NBP7 31-152 partner limits assumed): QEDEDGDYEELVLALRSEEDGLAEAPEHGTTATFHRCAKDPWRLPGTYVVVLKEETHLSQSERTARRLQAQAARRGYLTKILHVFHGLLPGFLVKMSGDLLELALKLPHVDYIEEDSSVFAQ
PCSK9, sequence (Q8NBP7 153-692): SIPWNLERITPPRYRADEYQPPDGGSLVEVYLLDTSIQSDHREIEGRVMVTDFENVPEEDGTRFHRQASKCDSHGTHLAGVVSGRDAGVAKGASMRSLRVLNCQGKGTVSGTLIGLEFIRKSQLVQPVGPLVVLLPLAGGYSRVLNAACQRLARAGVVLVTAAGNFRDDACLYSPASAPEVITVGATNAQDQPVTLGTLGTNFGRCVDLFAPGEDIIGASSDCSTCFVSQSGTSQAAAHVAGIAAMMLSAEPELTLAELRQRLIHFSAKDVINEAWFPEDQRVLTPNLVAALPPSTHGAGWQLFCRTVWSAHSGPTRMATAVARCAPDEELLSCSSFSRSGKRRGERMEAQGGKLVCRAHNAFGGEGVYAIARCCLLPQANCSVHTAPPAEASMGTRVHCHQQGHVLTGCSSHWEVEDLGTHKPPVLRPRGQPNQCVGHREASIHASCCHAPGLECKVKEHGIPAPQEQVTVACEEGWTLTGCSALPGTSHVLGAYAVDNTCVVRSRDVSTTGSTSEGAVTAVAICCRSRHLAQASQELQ
PCSK9, sequence (Q8NBP7 31-152 partner limits assumed): as the sequence (Q8NBP7 31-152 partner limits assumed) above

Structure (SMILES) | IC50 (His-EGF(A)-Fc; [1]) | IC50 (PCSK9Δhelix; [2]) | IC50 (PCSK9; [2]) | other results
CC[C@H](C)[C@@H]1NC(=O)[C@H](CCCNC(=N)N)NC(=O)[C@@H](CCC(N)=O)NC(=O)[C@H](CC(C)C)NC(=O)[C@H](CC(N)=O)NC(=O)[C@H](Cc2c[nH]c3ccccc23)NC(=O)[C@@H]2CCCN2C(=O)[C@H](CC(C)C)NC(=O)[C@H](CCCNC(=N)N)NC(=O)[C@@H](NC(C)=O)CSSC[C@@H](C(N)=O)NC(=O)[C@@H]2CCCN2C(=O)[C@H](CC(C)C)NC(=O)CNC1=O [Compound 103, Ac-CRLPWNLqRIGLPC-NH2] (Ac-CRLPWNL[dQ]RIGLPC-NH2; disulfide 1-14) | > 50 µM | > 50 µM | > 50 µM | 
CC[C@H](C)[C@@H]1NC(=O)[C@H](CCCNC(=N)N)NC(=O)[C@H](CCC(N)=O)NC(=O)[C@@H](CC(C)C)NC(=O)[C@H](CC(N)=O)NC(=O)[C@H](Cc2c[nH]c3ccccc23)NC(=O)[C@@H]2CCCN2C(=O)[C@H](CC(C)C)NC(=O)[C@H](CCCNC(=N)N)NC(=O)[C@@H](NC(C)=O)CSSC[C@@H](C(N)=O)NC(=O)[C@@H]2CCCN2C(=O)[C@H](CC(C)C)NC(=O)CNC1=O [Compound 104, Ac-CRLPWNlQRIGLPC-NH2] (Ac-CRLPWN[dL]QRIGLPC-NH2; disulfide 1-14) | > 50 µM | > 50 µM | > 50 µM | 
CC[C@H](C)[C@@H]1NC(=O)[C@H](CCCNC(=N)N)NC(=O)[C@H](CCC(N)=O)NC(=O)[C@H](CC(C)C)NC(=O)[C@@H](CC(N)=O)NC(=O)[C@H](Cc2c[nH]c3ccccc23)NC(=O)[C@@H]2CCCN2C(=O)[C@H](CC(C)C)NC(=O)[C@H](CCCNC(=N)N)NC(=O)[C@@H](NC(C)=O)CSSC[C@@H](C(N)=O)NC(=O)[C@@H]2CCCN2C(=O)[C@H](CC(C)C)NC(=O)CNC1=O [Compound 105] (Ac-CRLPW[dN]LQRIGLPC-NH2; disulfide 1-14) | > 50 µM | > 50 µM | > 50 µM | 
CC[C@H](C)[C@@H]1NC(=O)[C@H](CCCNC(=N)N)NC(=O)[C@H](CCC(N)=O)NC(=O)[C@H](CC(C)C)NC(=O)[C@H](CC(N)=O)NC(=O)[C@@H](Cc2c[nH]c3ccccc23)NC(=O)[C@@H]2CCCN2C(=O)[C@H](CC(C)C)NC(=O)[C@H](CCCNC(=N)N)NC(=O)[C@@H](NC(C)=O)CSSC[C@@H](C(N)=O)NC(=O)[C@@H]2CCCN2C(=O)[C@H](CC(C)C)NC(=O)CNC1=O [Compound 106] (Ac-CRLP[dW]NLQRIGLPC-NH2; disulfide 1-14) | > 50 µM | > 50 µM | > 50 µM | 
CC[C@H](C)[C@@H]1NC(=O)[C@H](CCCNC(=N)N)NC(=O)[C@H](CCC(N)=O)NC(=O)[C@H](CC(C)C)NC(=O)[C@H](CC(N)=O)NC(=O)[C@H](Cc2c[nH]c3ccccc23)NC(=O)[C@H]2CCCN2C(=O)[C@H](CC(C)C)NC(=O)[C@H](CCCNC(=N)N)NC(=O)[C@@H](NC(C)=O)CSSC[C@@H](C(N)=O)NC(=O)[C@@H]2CCCN2C(=O)[C@H](CC(C)C)NC(=O)CNC1=O [Compound 107] (Ac-CRL[dP]WNLQRIGLPC-NH2; disulfide 1-14) | > 50 µM | > 50 µM | > 50 µM | 
CC[C@H](C)[C@@H]1NC(=O)[C@H](CCCNC(=N)N)NC(=O)[C@H](CCC(N)=O)NC(=O)[C@H](CC(C)C)NC(=O)[C@H](CC(N)=O)NC(=O)[C@H](Cc2c[nH]c3ccccc23)NC(=O)[C@@H]2CCCN2C(=O)[C@@H](CC(C)C)NC(=O)[C@H](CCCNC(=N)N)NC(=O)[C@@H](NC(C)=O)CSSC[C@@H](C(N)=O)NC(=O)[C@@H]2CCCN2C(=O)[C@H](CC(C)C)NC(=O)CNC1=O [Compound 108] (Ac-CR[dL]PWNLQRIGLPC-NH2; disulfide 1-14) | > 50 µM | 28.2 µM | > 50 µM | 
CC[C@H](C)[C@@H]1NC(=O)[C@H](CCCNC(=N)N)NC(=O)[C@H](CCC(N)=O)NC(=O)[C@H](CC(C)C)NC(=O)[C@H](CC(N)=O)NC(=O)[C@H](Cc2c[nH]c3ccccc23)NC(=O)[C@@H]2CCCN2C(=O)[C@H](CC(C)C)NC(=O)[C@@H](CCCNC(=N)N)NC(=O)[C@@H](NC(C)=O)CSSC[C@@H](C(N)=O)NC(=O)[C@@H]2CCCN2C(=O)[C@H](CC(C)C)NC(=O)CNC1=O [Compound 109] (Ac-C[dR]LPWNLQRIGLPC-NH2; disulfide 1-14) | > 50 µM | 1.67 µM | > 50 µM | 
CCCCC(=O)N[C@@H](Cc1c[nH]c2ccccc12)C(=O)N[C@@H](CC(N)=O)C(=O)N[C@@H](CC(C)C)C(=O)N[C@H](C(=O)N[C@@H](CCCNC(=N)N)C(=O)N[C@H](C(=O)NCC(=O)N[C@@H](CC(C)C)C(=O)N[C@@H](CC(C)C)C(=O)N[C@@H](CCCNC(=N)N)C(N)=O)[C@@H](C)CC)C(C)C [Compound 111] (Pentanoyl-WNLVRIGLLR-NH2) |  |  |  | IC50 (His-EGF(A)-Fc; counterscreen, Example 7): > 50 µM; IC50 (PCSK9Δhelix; Example 7): 4.9 µM; IC50 (PCSK9; Example 7): > 50 µM
CCCCC(=O)N[C@@H](Cc1c[nH]c2ccccc12)C(=O)N[C@@H](CC(N)=O)C(=O)N[C@@H](CC(C)C)C(=O)N[C@H](C(=O)N[C@@H](CCCNC(=N)N)C(=O)N[C@H](C(=O)NCC(=O)N[C@H](C(=O)N[C@H](C(=O)N[C@@H](CCCNC(=N)N)C(N)=O)[C@@H](C)O)[C@@H](C)O)[C@@H](C)CC)C(C)C [Compound 113] (Pentanoyl-WNLVRIGTTR-NH2) |  |  |  | IC50 (His-EGF(A)-Fc; counterscreen, Example 7): > 50 µM; IC50 (PCSK9Δhelix; Example 7): > 50 µM; IC50 (PCSK9; Example 7): > 50 µM
CCCCC(=O)N[C@@H](Cc1c[nH]c2ccccc12)C(=O)N[C@@H](CC(N)=O)C(=O)N[C@@H](CC(C)C)C(=O)N[C@H](C(=O)N[C@@H](CCCNC(=N)N)C(=O)N[C@H](C(=O)NCC(=O)N[C@H](C(=O)N[C@@H](CC(C)C)C(=O)N[C@@H](CCCNC(=N)N)C(N)=O)[C@@H](C)O)[C@@H](C)CC)C(C)C [Compound 114] (Pentanoyl-WNLVRIGTLR-NH2) |  |  |  | IC50 (His-EGF(A)-Fc; counterscreen, Example 7): > 50 µM; IC50 (PCSK9Δhelix; Example 7): > 50 µM; IC50 (PCSK9; Example 7): > 50 µM
CC[C@H](C)[C@@H]1NC(=O)[C@H](CCCNC(=N)N)NC(=O)[C@H](CCC(N)=O)NC(=O)[C@H](CC(C)C)NC(=O)[C@H](CC(N)=O)NC(=O)[C@H](Cc2c[nH]c3ccccc23)NC(=O)[C@@H]2CCCN2C(=O)[C@H](CC(C)C)NC(=O)[C@H](CCCNC(=N)N)NC(=O)[C@@H](NC(C)=O)CSSC[C@@H](C(N)=O)NC(=O)CCCCNC1=O [Compound 115] (Ac-CRLPWNLQRI[Ava]C-NH2; disulfide 1-12) | > 50 µM | > 50 µM | > 50 µM | 
CC[C@H](C)[C@@H]1NC(=O)[C@H](CCCNC(=N)N)NC(=O)[C@H](CCC(N)=O)NC(=O)[C@H](CC(C)C)NC(=O)[C@H](CC(N)=O)NC(=O)[C@H](Cc2c[nH]c3ccccc23)NC(=O)[C@@H]2CCCN2C(=O)[C@H](CC(C)C)NC(=O)[C@H](CCCNC(=N)N)NC(=O)[C@@H](NC(C)=O)CSSC[C@@H](C(N)=O)NC(=O)CCCCCNC1=O [Compound 116] (Ac-CRLPWNLQRI[Ahx]C-NH2; disulfide 1-12) | > 50 µM | 31.6 µM | > 50 µM | inhibition in the PCSK9Δhelix/Ab20 binding assay (PCSK9Δhelix): weak but detectable inhibition
CC[C@H](C)[C@@H]1NC(=O)[C@H](CCCCNC(=N)N)NC(=O)[C@H](CCC(N)=O)NC(=O)[C@H](CC(C)C)NC(=O)[C@H](CC(N)=O)NC(=O)[C@H](Cc2c[nH]c3ccccc23)NC(=O)[C@@H]2CCCN2C(=O)[C@H](CC(C)C)NC(=O)[C@H](CCCNC(=N)N)NC(=O)[C@@H](NC(C)=O)CSSC[C@@H](C(N)=O)NC(=O)[C@@H]2CCCN2C(=O)[C@H](CC(C)C)NC(=O)CNC1=O [Compound 117] (Ac-CRLPWNLQ[hArg]IGLPC-NH2; disulfide 1-14) | > 50 µM | 0.334 µM | > 50 µM | 
CC[C@H](C)[C@@H]1NC(=O)[C@H](CCCNC(=N)N)NC(=O)[C@H](CCC(N)=O)NC(=O)[C@H](CC(C)C)NC(=O)[C@H](CC(N)=O)NC(=O)[C@H](Cc2c[nH]c3ccccc23)NC(=O)[C@@H]2CCCN2C(=O)[C@H](CC(C)C)NC(=O)[C@H](CCCNC(=N)N)NC(=O)[C@@H](NC(C)=O)CSSC[C@@H](C(N)=O)NC(=O)CCCCCCNC1=O [Compound 121] (Ac-CRLPWNLQRI[Ahp]C-NH2; disulfide 1-12) | > 50 µM | 40.3 µM | > 50 µM | inhibition in the PCSK9Δhelix/Ab20 binding assay (PCSK9Δhelix): weak but detectable inhibition
CCCC(=O)N[C@@H](Cc1c[nH]c2ccccc12)C(=O)N[C@@H](CC(N)=O)C(=O)N[C@@H](CC(C)C)C(=O)N[C@H](C(=O)N[C@@H](CCCNC(=N)N)C(=O)N[C@H](C(=O)NCC(=O)N[C@@H](CC(C)C)C(=O)N[C@@H](CC(C)C)C(=O)N[C@@H](CCCNC(=N)N)C(N)=O)[C@@H](C)CC)C(C)C [Compound 123] (Butyryl-WNLVRIGLLR-NH2) |  |  |  | IC50 (His-EGF(A)-Fc; [3]): ≥ 50 µM; IC50 (PCSK9Δhelix; Table 8E, additional compounds): 18 µM; IC50 (PCSK9; Table 8E, additional compounds): ≥ 50 µM
CCCCC(=O)N[C@@H](Cc1c[nH]c2ccccc12)C(=O)N[C@@H](CC(N)=O)C(=O)N[C@@H](CC(C)C)C(=O)N[C@H](C(=O)N[C@@H](CCCNC(=N)N)C(=O)N[C@H](C(=O)NCC(=O)N[C@@H](CC(C)C)C(=O)N[C@@H](CC(C)C)C(=O)N[C@@H](CCCNC(=N)N)C(=O)O)[C@@H](C)CC)C(C)C [Compound 152] (Pentanoyl-WNLVRIGLLR-OH) |  |  |  | IC50 (His-EGF(A)-Fc; [3]): ≥ 50 µM; IC50 (PCSK9Δhelix; Table 8E, additional compounds): 14 µM; IC50 (PCSK9; Table 8E, additional compounds): 43 µM
CCCCC(=O)N[C@@H](Cc1c[nH]c2ccccc12)C(=O)N[C@@H](CC(N)=O)C(=O)N[C@@H](CC(C)C)C(=O)N[C@@H](CCCCN)C(=O)N[C@@H](CCCNC(=N)N)C(=O)N[C@H](C(=O)NCC(=O)N[C@@H](CC(C)C)C(=O)N[C@@H](CC(C)C)C(=O)N[C@@H](CCCNC(=N)N)C(N)=O)[C@@H](C)CC [Compound 159] (Pentanoyl-WNLKRIGLLR-NH2) |  |  |  | IC50 (His-EGF(A)-Fc; [3]): ≥ 50 µM; IC50 (PCSK9Δhelix; Table 8E, additional compounds): 6.6 µM; IC50 (PCSK9; Table 8E, additional compounds): ≥ 50 µM
